Laboratory results published in article PMC8294059, “Identification and Immune Assessment of T Cell Epitopes in Five Plasmodium falciparum Blood Stage Antigens to Facilitate Vaccine Candidate Selection and Optimization” (Frontiers in Immunology, 2021).
Read-outs that look alike come from different tables or passages of the source. Where a SMILES comes first, the peptide text is derived from it.

Key:
[1] = target: HLA-A*0301 (Homo sapiens, UniProt P04439); assay: biochemical; type: binding; conditions: allele A*0301
Procedure: (§1) A cell-free class I HLA binding assay that allows for in vitro quantification of peptide-HLA binding affinity in a competition format was used. In this assay, a fluorescently labeled, high binding, control peptide is loaded onto 384-well ½-area plates along with unlabeled experimental peptides. To remove endogenous peptides and render the HLA A and B molecules receptive to binding, HLA is heated at 53°C for 15 minutes and immediately added to the assay. The mixture is then allowed to stand for three days. Once the mixture has reached steady equilibrium (at 72 hours), displacement of the high binding control peptide is measured through fluorescence polarization. Binding of experimental peptides is expressed as the percent inhibition of the labeled control peptide (experimental fluorescence / control fluorescence, multiplied by 100). The percent inhibition values for each experimental peptide (across a range of molar concentrations) are used to calculate the concentration which inhibits 50% of the labeled control peptide’s specific binding. This value is referred to as the peptide’s IC50.

[2] = target: HLA-B*0702 (Homo sapiens, UniProt P01889); assay: In vitro class I HLA binding assay (fluorescence polarization competition); conditions: allele B*0702
Procedure: as §1, with “Once the mixture has reached steady equilibrium (at 72 hours), displacement of the high binding control peptide is measured through fluorescence polarization.” left out

[3] = target: HLA-A*0201 (Homo sapiens, UniProt P04439, D140Y/D185E/D98H/E176V/E277Q/G131W/G231S/I119V/I121R/I166T/I218V/L300P/L318F/N151K/N90K/P208A/P217A/Q86G/Q94H/R138H/R169H/T345S); assay: as above; conditions: allele A*0201, fluorescence polarization competition; for IC50: read-out: IC50 (nM), in vitro HLA binding affinity
Outline: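 Cell-free competition assay: HLA heat-treated 53°C for 15 min to strip endogenous peptides, then mixed with fluorescent high-affinity control peptide and test peptides for 72 h to equilibrium. Displacement read by fluorescence polarization as percent inhibition; IC50 derived from a concentration range.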

[4] = fluorescence polarization competition
[5] = cell-free competition, fluorescence polarization at 72 hours, Non-binder = no dose-dependent inhibition, read-out: IC50
[6] = fluorescence polarization competition, read-out: IC50 (nM), in vitro HLA binding affinity
[7] = cell-free competition, fluorescence polarization at 72 hours, Non-binder = no dose-dependent inhibition

Molecule | IC50 [2, 6] [nM] | IC50 (nM), in vitro HLA binding affinity [2, 4] | further results
LSVKSKNLNK [RH5_369] | – | – | IC50 (nM), in vitro HLA binding affinity [1, 4]: Non-Binder
CC[C@H](C)[C@H](NC(=O)[C@@H](NC(=O)[C@H](C)NC(=O)[C@H](CCCCN)NC(=O)[C@@H]1CCCN1C(=O)[C@@H](N)CCSC)C(C)C)C(=O)NCC(=O)N[C@@H](CO)C(=O)N[C@@H](CO)C(=O)N1CCC[C@H]1C(=O)O [EBA175_0971] (H-MPKAVIGSSP-OH) | – | – | IC50 [2, 5]: 293000 nM
CC[C@H](C)[C@H](NC(=O)[C@H](Cc1c[nH]c2ccccc12)NC(=O)[C@H](CO)NC(=O)[C@H](CC(=O)O)NC(=O)[C@H](CCCCN)NC(=O)[C@@H](NC(=O)[C@@H](N)CCCCN)C(C)C)C(=O)N[C@H](C(=O)N[C@@H](CC(C)C)C(=O)O)[C@@H](C)O [CYRPA_082] (H-KVKDSWITL-OH) | 458 | – | IC50 [3]: 4010 nM
KSAFLPTGAF [AMA1_376] | – | Non-binder | –
CC[C@H](C)[C@H](N)C(=O)N[C@@H](CC(C)C)C(=O)N[C@@H](CC(N)=O)C(=O)N[C@@H](CC(N)=O)C(=O)N[C@@H](CO)C(=O)N[C@@H](CCCCN)C(=O)N[C@@H](Cc1ccccc1)C(=O)N[C@@H](CC(N)=O)C(=O)N[C@@H](CCCCN)C(=O)O [EBA175_0069] (H-ILNNSKFNK-OH) | – | – | IC50 [1, 5]: 420 nM
MNRTFKKMM [RH5_296] | – | Non-binder | –
TPGPLDNTSE [EBA175_1073] | – | – | IC50 (nM) [2, 7]: Non-binder
HPYDINNKND [RH5_240] | – | Non-binder | –
C[C@H](N)C(=O)N[C@H](C(=O)N[C@@H](CS)C(=O)N[C@@H](CCCCN)C(=O)N[C@@H](Cc1ccc(O)cc1)C(=O)NCC(=O)N[C@@H](Cc1ccccc1)C(=O)N[C@@H](CC(N)=O)C(=O)N[C@@H](CCCCN)C(=O)O)[C@@H](C)O [RIPR_0266] (H-ATCKYGFNK-OH) | – | – | IC50 [1, 6]: 4750 nM
CC[C@H](C)[C@H](NC(=O)[C@H](CS)NC(=O)[C@@H](NC(=O)CNC(=O)[C@H](CC(N)=O)NC(=O)[C@H](CCC(=O)O)NC(=O)[C@H](CC(C)C)NC(=O)[C@@H](NC(=O)[C@@H](N)Cc1ccccc1)C(C)C)C(C)C)C(=O)O [RIPR_0745] (H-FVLENGVCI-OH) | 284000 | – | IC50 [3]: 4170 nM
LPIKSTEEEK [RH5_042] | – | Non-binder | –
CC[C@H](C)[C@H](NC(=O)[C@@H](N)CC(C)C)C(=O)N[C@@H](CS)C(=O)NCC(=O)N[C@H](C(=O)N[C@@H](CO)C(=O)N1CCC[C@H]1C(=O)N[C@@H](Cc1ccc(O)cc1)C(=O)N[C@@H](CCCCN)C(=O)O)C(C)C [CYRPA_178] (H-LICGVSPYK-OH) | – | – | IC50 [1, 6]: 419 nM
CC[C@H](C)[C@H](N)C(=O)N[C@H](C(=O)N[C@@H](CO)C(=O)N[C@@H](CC(=O)O)C(=O)N[C@@H](Cc1c[nH]cn1)C(=O)N[C@@H](CC(C)C)C(=O)N[C@@H](CCCNC(=N)N)C(=O)N[C@@H](CCC(N)=O)C(=O)N[C@@H](CCSC)C(=O)O)[C@@H](C)O [RH5_470] (H-ITSDHLRQM-OH) | 183000 | – | –
CC(C)C[C@H](NC(=O)[C@@H](NC(=O)[C@@H]1CCCN1C(=O)[C@@H](NC(=O)[C@@H](NC(=O)[C@H](Cc1c[nH]cn1)NC(=O)[C@H](CO)NC(=O)[C@H](C)NC(=O)[C@@H](N)CCCNC(=N)N)[C@@H](C)O)[C@@H](C)O)C(C)C)C(=O)O [AMA1_608] (H-RASHTTPVL-OH) | 258 | – | –
CC[C@H](C)[C@H](NC(=O)[C@H](CC(=O)O)NC(=O)[C@H](CC(N)=O)NC(=O)[C@H](CS)NC(=O)[C@H](CCCCN)NC(=O)[C@H](CO)NC(=O)[C@H](CCCCN)NC(=O)[C@@H](NC(=O)[C@@H](N)CCCCN)C(C)C)C(=O)N[C@@H](CCCCN)C(=O)O [RH5_219] (H-KVKSKCNDIK-OH) | – | – | IC50 [1, 6]: 39300 nM
MIRIKKKLIL [RH5_001] | – | Non-binder | –
PSHNSFIKK [RH5_101] | – | – | IC50 (nM), in vitro HLA binding affinity [1, 4]: Non-Binder
CC(C)C[C@H](NC(=O)[C@H](CC(N)=O)NC(=O)[C@H](CCCCN)NC(=O)[C@H](CCCNC(=N)N)NC(=O)[C@@H]1CCCN1C(=O)[C@@H](N)CS)C(=O)N[C@@H](CCC(N)=O)C(=O)N[C@@H](CC(N)=O)C(=O)N[C@@H](C)C(=O)O [AMA1_302] (H-CPRKNLQNA-OH) | 484 | – | –

Molecule | IC50 [2, 6] [nM] | IC50 (nM), in vitro HLA binding affinity [2, 4] | further results
IPHYTFLDYY [RH5_176] | – | Non-binder | –
KPHECVCNKQ [RIPR_0878] | – | Non-binder | –
CSCC[C@H](NC(=O)[C@H](CCC(=O)O)NC(=O)[C@H](CC(N)=O)NC(=O)[C@H](CCC(=O)O)NC(=O)[C@H](CCC(N)=O)NC(=O)[C@H](CC(C)C)NC(=O)[C@H](CC(N)=O)NC(=O)[C@H](CC(C)C)NC(=O)[C@@H]1CCCN1C(=O)[C@@H](N)CO)C(=O)O [RIPR_0246] (H-SPLNLQENEM-OH) | 22400 | – | –
FPCSLYKDEI [AMA1_441] | – | Non-binder | –
MDMKNYGTNL [RH5_330] | – | Non-binder | –
KRASHTTPV [AMA1_607] | – | Non-binder | IC50 (nM), in vitro HLA binding affinity [3]: Non-binder
CC(C)C[C@H](NC(=O)[C@@H](NC(=O)[C@H](CO)NC(=O)[C@H](CCC(=O)O)NC(=O)[C@H](CS)NC(=O)[C@H](CC(=O)O)NC(=O)[C@H](CC(N)=O)NC(=O)[C@@H]1CCCN1C(=O)[C@@H](N)CCCNC(=N)N)C(C)C)C(=O)O [RIPR_0676] (H-RPNDCESVL-OH) | 377 | – | –
CC(C)C[C@H](NC(=O)[C@H](CC(N)=O)NC(=O)[C@H](CCC(=O)O)NC(=O)[C@H](CCCCN)NC(=O)[C@H](CS)NC(=O)[C@@H](NC(=O)[C@H](CS)NC(=O)[C@H](CCC(=O)O)NC(=O)[C@@H]1CCCN1C(=O)[C@@H](N)CCCCN)C(C)C)C(=O)O [RIPR_0836] (H-KPECVCKENL-OH) | 206000 | – | –
FITSDHLRQM [RH5_469] | – | Non-binder | –
CPENSTCEQI [RIPR_0331] | – | Non-binder | –
C[C@H](NC(=O)[C@@H](NC(=O)[C@@H](NC(=O)[C@H](CC(N)=O)NC(=O)CNC(=O)[C@H](Cc1ccc(O)cc1)NC(=O)[C@H](CCCCN)NC(=O)[C@H](CCC(=O)O)NC(=O)[C@@H]1CCCN1C(=O)[C@@H](N)CCCCN)[C@@H](C)O)[C@@H](C)O)C(=O)O [CYRPA_316] (H-KPEKYGNTTA-OH) | 836000 | – | –
LQKHGFHTM [EBA175_1260] | – | – | IC50 (nM) [2, 7]: Non-binder
NPQQSVGENG [EBA175_0794] | – | – | IC50 (nM) [2, 7]: Non-binder
CC(C)C[C@H](NC(=O)[C@H](CC(=O)O)NC(=O)[C@H](CC(N)=O)NC(=O)[C@H](CCCCN)NC(=O)[C@H](CCCCN)NC(=O)[C@H](CCCCN)NC(=O)[C@H](CC(N)=O)NC(=O)[C@H](CO)NC(=O)[C@@H]1CCCN1C(=O)[C@@H](N)[C@@H](C)O)C(=O)O [RH5_286] (H-TPSNKKKNDL-OH) | 1880 | – | –
CC(C)C[C@H](NC(=O)[C@@H](NC(=O)[C@H](CC(N)=O)NC(=O)[C@H](CO)NC(=O)[C@H](CC(N)=O)NC(=O)[C@H](CCCNC(=N)N)NC(=O)[C@H](CC(=O)O)NC(=O)[C@H](CCC(=O)O)NC(=O)[C@@H]1CCCN1C(=O)[C@@H](N)CC(N)=O)[C@@H](C)O)C(=O)O [EBA175_1224] (H-NPEDRNSNTL-OH) | – | – | IC50 [2, 5]: 2700 nM
LPSAKNNCEY [RIPR_0313] | – | Non-binder | –
CC[C@H](C)[C@H](NC(=O)[C@H](Cc1ccc(O)cc1)NC(=O)[C@@H]1CCCN1C(=O)[C@@H](N)CCCNC(=N)N)C(=O)N[C@@H](CO)C(=O)N[C@@H](CCCCN)C(=O)N[C@@H](CC(N)=O)C(=O)N[C@@H](CC(=O)O)C(=O)N[C@@H](CC(C)C)C(=O)O [CYRPA_229] (H-RPYISKNDL-OH) | 244 | – | –
FNRIEYHTKI [RH5_421] | – | Non-binder | –
